In patent US20190071670A1, “Methods Of Treatment For Alpha-1 Antitrypsin Deficiency” (Arrowhead Pharmaceuticals, Inc., priority 2016, published 2019):

Experiments:
hAAT mRNA = experiment: Liver hAAT mRNA levels in PiZ mice (RT-qPCR); format: in vivo, human (expressed in PiZ mice); details: for hAAT mRNA in liver reduced: 6 month old female PiZ mice, single IV 8 mg/kg + 8 mg/kg MLP delivery polymer; for Average relative mRNA level (hAAT) / hAAT mRNA level: PiZ mice liver; for Average relative mRNA level (hAAT): one injection 8 mg/kg + 8 mg/kg MLP delivery polymer; for hAAT mRNA level: single IV 6 mg/kg with 6 mg/kg MLP delivery polymer, relative to mouse β-actin mRNA
Experimental: Compositions comprising double-stranded AAT expression-inhibiting oligomeric compounds were administered to PiZ mice. PiZ mice harbor the human PiZ AAT mutant allele and model human AATD (Carlson et al. Journal of Clinical Investigation 1989). […] Liver hAAT mRNA production was measured at days 3 and 10. Reduced mRNA levels correlated with decreased serum hAAT protein levels, except that mRNA reduction preceded protein reduction by a few days. The level of liver hAAT mRNA production was measured at day 3 and day 10 following a single dose of AAT RNAi agent with MLP delivery polymer in PiZ mice. A sustained decrease in liver hAAT mRNA levels was observed that correlated with the decrease observed in serum hAAT protein levels.
(§1) Human AAT protein levels in serum were monitored for 29 days. At the indicated times, blood samples were collected and assayed for hAAT by ELISA. Day 1 samples were collected prior to trigger administration. For mRNA analysis, 3-4 mice were euthanized at each of days 3, 8, 15, 22, and 29. For euthanized mice, cardiac stick were performed for serum isolation for AAT ELISA (200 μl serum). Half of the left lateral liver lobe was collected and snap-freeze in liquid nitrogen for RNA isolation. The remainder of the left lobes were embedded into paraffin blocks for PAS-D staining with hematoxylin as counter-stain. Serum hAAT levels in mice given AAT Duplex Pair SEQ ID NO: 5/6 were 95% reduced on day 8 and remained reduced to day 29, at which time they were 79% reduced. Mice given AAT Duplex Pair SEQ ID NO: 5/6 were euthanized at either day 3, 8, 15, 22 or 29. Mice given saline or Luciferase siRNA control (SEQ ID 7/8) were euthanized on day 29. Levels of hAAT mRNA in the livers were measured by RT-qPCR. The hAAT mRNA in mice given AAT Duplex Pair SEQ ID NO: 5/6 was reduced by 97% on day 3 and remained reduced on day 29, at which time levels were 56% reduced. The size of the globules and the area of the liver covered by globules was digitally quantitated from liver specimens stained with PAS-D. Duplex Pair SEQ ID NO: 5/6 treated mice had 70% smaller globules at day 15 and 62% smaller globules at day 29. The area of the liver covered with globules was 83% reduced on day 15 and 72% reduced on day 29 (FIG. 5).

Z-hAAT [1] = experiment: Semi-quantitative Western blot of soluble (monomer) and insoluble (polymer) Z-hAAT in PiZ mouse liver; format: in vivo, human (expressed in PiZ mice)
Experimental: A modified western blot protocol was used to separate the soluble and insoluble Z-hAAT fractions under non-denaturing conditions as previously described (Mueller et al. Molecular Therapy 2012).
PiZ mice treated biweekly with 8 mg/kg AAT RNAi agent for 32 weeks were compared with mice at start of study (baseline) and control mice injected for 32 weeks with saline vehicle. Monomeric and polymeric Z-hAAT protein in the livers of these mice were compared by semi-quantitative Western blotting (FIG. 7). […] Monomeric Z-AAT was reduced by 90% and polymeric Z-AAT was reduced by 48% in the AAT RNAi agent treated mice (p<0.0001).
One animal from each of Groups 2, 3, and 4 died prior to completion of the study. After sacrifice, monomeric and polymeric Z-hAAT protein in the livers of these mice were compared by semi-quantitative Western blotting over a course of 3 separate runs. Western blot Run 1 included six mice from Group 1, four mice from Group 2, and five mice from Group 4. Western blot Run 2 includes three mice from Group 1, six mice from Group 3 and 5 mice from Group 5. Western blot Run 3 includes three mice from Group 1, 2 mice from Group 4, 2 mice from Group 5, 7 mice from Group 6.

[2] = test system: liver morphology of PiZ mice; experiment: Liver histology (H&E) of PiZ mice; format: in vivo
Experimental: (§2) AAT RNAi agent was administered to PiZ mice. Each mouse received a biweekly administration of an intravenous (IV) dose of 8 mg/kg AAT RNAi agent with 8 mg/kg of MLP delivery polymer for 8 weeks. Mice were bled weekly to monitor hAAT levels in serum and were sacrificed on day 57 after administration of AAT RNAi agent with MLP delivery polymer. Liver samples were harvested and fixed in 10% neutral-buffered formalin and embedded in paraffin. Inflammatory infiltration was assessed by H&E staining. […] PiZ mice injected biweekly with saline had significant globule accumulation as well as inflammatory infiltration around damaged or dead hepatocytes. Aggregation of Z-hAAT was visualized by performing diastase-resistant periodic acid Schiff (PAS-D) staining on liver sections. Diastase digestion of glycogen prior to performing a PAS stain allows positive staining of Z-AAT protein accumulation, or “globules”. […] The number of globules, the size of the globules and the area of the liver covered by globules was digitally quantitated from liver specimens stained with PAS-D. Mice treated with AAT RNAi agent had 85% fewer globules, 85% smaller globules, and 96% less area of the liver covered with globules than saline-injected controls (FIG. 3).
Baseline mice had significant globule accumulation with globules that were 5-10 microns in diameter, compressed nuclei, apoptosis and inflammatory cell infiltration. Saline treated mice had significant globule accumulation with globules that were 25-35 microns in diameter, compressed nuclei, and inflammatory cell infiltration.

Z-hAAT [3] = experiment: Semi-quantitative Western blot of soluble (monomer) and insoluble (polymer) Z-hAAT in PiZ mouse liver; format: in vivo, human (expressed in PiZ mice); details: PiZ mice liver; four biweekly IV doses 8 mg/kg with 8 mg/kg MLP delivery polymer for 8 weeks
Z-AAT globules = experiment: PAS-D staining and digital quantitation of Z-AAT globules in PiZ mouse liver; format: in vivo, human (expressed in PiZ mice); details: for area of the liver covered with globules reduced / smaller globules: 6 month old female PiZ mice, single IV 8 mg/kg + 8 mg/kg MLP delivery polymer
Experimental: as §2, §1

[4] = Western blot Run 1, Group 4 (n = 5): male PiZ mice, 8 mg/kg + 4 mg/kg MLP, 20 × q2w, euthanized Week 39
[5] = male PiZ mice liver, biweekly 8 mg/kg (with MLP) for 32 weeks, p<0.0001
[6] = PiZ mice, AAT RNAi agent + MLP treated, n = 16
[7] = male PiZ mice, biweekly AAT RNAi agent with MLP (Example 9)
[8] = PiZ mice, four biweekly IV doses 8 mg/kg with 8 mg/kg MLP delivery polymer over 8 weeks, PAS-D

Duplex Pair SEQ ID NO: 5/6: double-stranded AAT RNAi agent: modified antisense strand SEQ ID NO: 5 annealed to Chol-TEG sense strand SEQ ID NO: 6 (antisense TGGAACUUGGUGAUGAUAUTT; sense UAUAUAUCAUCACCAAGUUCCAT; Chol-TEG on sense strand; chemical modifications; antisense strand of dsRNA; modified_base 7 /mod_base = “2′-3′ seco corresponding nucleotide”; modified_base 2,4,6,8,10,12,14,16,18 /mod_base = “2′-deoxy-2′-fluoro corresponding nucleoside”; modified_base 3,5,9,11,13,15,17,19 /mod_base = “2′-O-methyl corresponding nucleoside”; modified_base 21 /mod_base = “5′-phosphorothioate corresponding nucleotide”; sense strand of dsRNA; modified_base 2 /mod_base = “2′-hydroxy corresponding nucleoside”; modified_base 4,6,8,10,12,14,16,18,20,22 /mod_base = “2′-deoxy-2′-fluoro corresponding nucleoside”; …)
hAAT mRNA in liver reduced (hAAT mRNA; day 3): 97%
hAAT mRNA in liver reduced (hAAT mRNA; day 29): 56%
Average relative mRNA level (hAAT) (hAAT mRNA; Day 3): 0.030
Average relative mRNA level (hAAT) (hAAT mRNA; Day 8): 0.032
Average relative mRNA level (hAAT) (hAAT mRNA; Day 15): 0.158
Average relative mRNA level (hAAT) (hAAT mRNA; Day 22): 0.221
Average relative mRNA level (hAAT) (hAAT mRNA; Day 29): 0.439
hAAT mRNA level (hAAT mRNA; day 3): 0.025 ± 0.02
hAAT mRNA level (hAAT mRNA; day 10): 0.055 ± 0.02
Z-hAAT monomeric protein, Average (Standard deviation) (Z-hAAT [1]; [4]): 71.4 (15.6)
Z-hAAT monomeric protein, Average Normalized to Baseline (Group 1) (Z-hAAT [1]; [4]): 0.126
Z-hAAT monomeric protein, Average Normalized to Saline (Group 2) (Z-hAAT [1]; [4]): 0.152
Z-hAAT polymeric protein, Average (Standard deviation) (Z-hAAT [1]; [4]): 1809.1 (932.5)
Z-hAAT polymeric protein, Average Normalized to Baseline (Group 1) (Z-hAAT [1]; [4]): 0.419
Z-hAAT polymeric protein, Average Normalized to Saline (Group 2) (Z-hAAT [1]; [4]): 0.238
Z-AAT polymer burden and diseased liver morphology (Z-hAAT [1]; male PiZ mice 11-17 weeks old, biweekly 4, 8 or 12 mg/kg with MLP delivery polymer (2:1) for 16, 24 or 32-33 weeks): a reduction in the Z-AAT polymer burden and a reduction in the diseased liver morphology
Monomeric Z-AAT reduced (Z-hAAT [1]; [5]): 90%
polymeric Z-AAT reduced (Z-hAAT [1]; [5]): 48%
Score: Inflammatory foci, Moderate (number of animals) [2, 6]: 11
Score: Inflammatory foci, None (number of animals) [2, 6]: 5
Score: Inflammatory foci, Severe (number of animals) [2, 6]: 0
Score: Compressed nuclei (animals/total) ([2]; PiZ mice, AAT RNAi agent + MLP treated, n = 16, baseline 7/12, saline 13/13): 3/16
Liver morphology and inflammatory infiltration (H&E staining) ([2]; PiZ mice, biweekly IV 8 mg/kg with 8 mg/kg MLP delivery polymer for 8 weeks, day 57): normal morphology, no detectably inflammatory infiltrate and very rare, small Z-hAAT globules
compressed nuclei [2, 7]: fewer compressed nuclei than either baseline or saline-treated mice
inflammatory infiltration [2, 7]: no inflammatory infiltration
globule diameter ([2]; male PiZ mice, biweekly AAT RNAi agent with MLP (Example 9), baseline 5-10, saline 25-35 microns): 7-10 microns
globule accumulation ([2]; male PiZ mice, biweekly AAT RNAi agent with MLP (Example 9), baseline and saline: significant): minimal to moderate
reduction in insoluble Z-hAAT compared to saline (Z-hAAT [3]): 79%
reduction in soluble Z-hAAT compared to saline (Z-hAAT [3]): > 99%
area of the liver covered with globules reduced (Z-AAT globules; day 15): 83%
smaller globules (Z-AAT globules; day 15): 70%
area of the liver covered with globules reduced (Z-AAT globules; day 29): 72%
smaller globules (Z-AAT globules; day 29): 62%
fewer globules (number of globules) than saline-injected controls (Z-AAT globules; [8]): 85%
less area of the liver covered with globules than saline-injected controls (Z-AAT globules; [8]): 96%
smaller globules (size of the globules) than saline-injected controls (Z-AAT globules; [8]): 85%
